Patent US20100036088A1, “Selective poly-N-substituted glycine antibiotics” (priority 2008, published 2010)
Square brackets hold non-standard residues; d marks the D form. Peptide text beside a SMILES is read from it. Nspe = C[C@H](NCC(=O)O)c1ccccc1; Nlys = NCCCCNCC(=O)O

Experiments:
B. subtilis BR151 = assay type: cell-based; settings: Table 1
Source text: An initial set of 15 ampetoid analogs was synthesized to determine whether peptoids are affected by structural and sequence modifications in a manner consistent with AMP activities. The designs for ampetoids in this library were derived from two antibacterial and selective amphipathic dodecamers, 1 and 2. Peptoid 1 [H-(Nlys-Nspe-Nspe)4—NH2] is composed of 2/3 Nspe, the peptoid analog of phenylalanine, and 1/3 Nlys, the peptoid analog of lysine (see FIG. 1 for the structures of representative peptoid monomers and corresponding N-substituents). Peptoid 2 [H-(Nlys-Nssb-Nspe)4—NH2] contains 1/3 isoleucine-like Nssb monomers in place of Nspe. The variant sequences were designed to effect changes in chirality, length, hydrophobicity, charge, and amphipathicity. All of these compounds were tested for antibacterial activity against representative BSL1 Gram-negative (E. coli JM109) and Gram-positive (B. subtilis BR151) bacterial strains. As an initial measure of selectivity, the lytic activity of the peptoids was determined against human erythrocytes. Table 1 summarizes the sequences synthesized, the solvent composition at RP-HPLC elution as a relative measure of molecular hydrophobicity, and antibacterial and hemolytic activities.
(§1) Antibacterial assays. MICs were determined according to CLSI M7-A6 protocols in a 96-well microtiter plate. In test wells, 50 μL bacterial inoculum (5×10^5 CFU/ml) in Mueller-Hinton broth (MHB) was added to 50 μL peptoid solution in MHB (prepared by 1:2 serial dilutions). Positive controls contained 50 μL inoculum and 50 μL MHB without peptoid. […] MIC values reported were reproducible between three independent experimental replicates, each consisting of two parallel trials. Broad-spectrum antimicrobial susceptibility testing was performed against BSL2 pathogens by Nova Biologicals, Inc. (Conroe, Tex.).

B. subtilis = assay type: cell-based; settings: Table 2; cation-adjusted broth
Method: as §1
(§2) Screening antibacterial assays. MICs were determined in 96-well microtiter plates in accordance with CLSI M7-A6 protocols. Peptoid solutions with 50 μL total volume were prepared using 2:1 serial dilutions. 50 μL of bacteria inoculum (1×10^6 CFU/mL) prepared in cation-adjusted Mueller-Hinton broth (CAMHB) was added to test wells. Control wells contained 100 μL MHB (no growth) or 50 μL inoculums with 50 μL MHB with no peptoid. […] Reported values were reproducible over three experiments, each containing two parallel trials.

E. coli = assay type: cell-based; settings: Table 2; cation-adjusted broth
Method: as §1, §2

[1] = tested on: both strains of E. faecalis; assay type: cell-based; settings: range over strains
Method: The activities of ampetoids tested against BSL2 Gram-positive strains, however, compared very favorably to those of pexiganan.
Broad-spectrum antibacterial assays. MICs of compounds were determined by microdilution procedure in Mueller-Hinton broth (MHB) in accordance with CLSI M7-A6 protocols in a manner similar to that described for the screen antibacterial assays. Inoculated microtiter plates were incubated at 35° C. for 24 hours prior to the result being recorded. Four ATCC strains that were used as standards are recommended by CLSI: Pseudomonas aeruginosa ATCC 27853, Escherichia coli ATCC 25922, Staphylococcus aureus ATCC 29213 and Enterococcus faecalis ATCC 29212. Other strains from the ATCC collection include Proteus vulgaris ATCC 49132, Proteus mirabilis ATCC 35659, Klebsiella pneumoniae ATCC 33495, Enterobacter aerogenes ATCC 35029 and Serratia marcescens ATCC 13880. S. aureus NRS100 (COL) is a well characterized methicillian-resistant S. aureus (MRSA) strain. The strains S. aureus VAN1 and S. aureus VAN2, vancomycin-resistant MRSA strains that were isolated in Michigan and Pennsylvania, were the first vancomycin-resistant strains clinically isolated. S. aureus NRS119 and S. aureus NRS120 are linezolid-resistant isolates from the Network on Antimicrobial Resistance in S. aureus (NARSA) collection. E. faecalis 99 and E. faecium 106 are vancomycin-resistant enterococcal strains.

[2] = tested on: Staphyloccus aureus (ATCC #25923); assay: Murine intraperitoneal infection model; assay type: in vivo; settings: mouse, 4 mg/kg I.P.; eleven mice treated with 1-Nhis6,12
Method: Using a murine peritoneal injection mouse model, the ability of peptoids to treat infection was evaluated in vivo. The results from three separate studies of peptoid 1 and two of peptoid 1-Nhis6,12 against saline treated controls are shown in FIG. 7. The horizontal line represents the geometric mean of each population.
Murine intraperitoneal infection model. Bacteria was prepared by inoculating 5 mL of MHB with a single colony of Staphyloccus aureus (ATCC #25923) from a freshly streaked plate and grown overnight at 37 C. The following morning, the bacteria was subcultured by diluting 1/3 in MHB and grown for approximately 1.5 hours. The bacteria were then diluted 10-fold in a 5% mucin in PBS solution and thoroughly mixed. A sample was reserved to later determine the amount of bacteria the mice received.
Mice were weighed, marked, and injected I.P. with 200 uL of S. aureus inoculum. Four hours post infection, mice were treated I.P. with 4 mg/kg peptoid (˜100 ug per mouse). The infection is allowed to proceed overnight. Mice were euthanized by CO2 asphyxiation after 24 hours, and the peritoneal cavity was exposed and lavaged with 5 mL PBS. The lavage was mixed and reserved on ice until plating. […] Colonies were counted the following day, and the CFU/ml of each sample was calculated. […]

[3] = tested on: A549 lung epithelial cells; assay: MTS assay, metabolic inhibition
Method: The biocompatibility of selected oligomers with A549 lung epithelial cells was evaluated using the MTS [3-(4,5-dimethylthiazol-2-yl)-5-(3-carboxymethoxyphenyl)-2-(4-sulfophenyl)-2H-tetrazolium] assay.
MTS Assays. A549 carcinoma-derived lung epithelial cells (ATTC CCL-185) were cultured in Ham's F12K media (ATTC, Manassas, Va.). A peptoid solution plate (100 μL/well) was prepared by serial dilution of aqueous peptoid stocks in media. Peptoid solutions were transferred onto a 96-well plate of day-old cell monolayers containing 100 μL/well media with ˜5000 cells/well. MTS reagent (Promega Corporation, Madison, Wis.) (40 μL/well) was added to each well and the plate was incubated at 37° C. for 3 h, after which absorbance at 490 nm was determined. Percent inhibition was determined as [1−(A−Atest blank)/(Acontrol−Ablank)]×100, where A is the absorbance of the test well and Acontrol the average absorbance of wells with cells exposed to media and MTS (no peptoid). Atest blank (media, MTS, and peptoid) and Ablank (media and MTS) were background absorbances measured in the absence of cells. The average of six replicates are reported, and error bars show one standard deviation.

ID10 relative to that of pexiganan [3] [times]	Structure (SMILES)	B. subtilis MIC (B. subtilis BR151) [µM]	B. subtilis MIC (B. subtilis) [µM]	E. coli MIC (E. coli) [µM]	MIC against both strains of E. faecalis [1] [µg/mL]	mice that died prematurely during the exposure period [2]
–	C[C@@H](c1ccccc1)N(CC(N)=O)C(=O)CN(C(=O)CN(CCCCN)C(=O)CN(C(=O)CN(C(=O)CN(CCCCN)C(=O)CN(C(=O)CN(C(=O)CN(CCCCN)C(=O)CN(C(=O)CN(C(=O)CNCCCCN)[C@@H](C)c1ccccc1)[C@@H](C)c1ccccc1)[C@@H](C)c1ccccc1)[C@@H](C)c1ccccc1)[C@@H](C)c1ccccc1)[C@@H](C)c1ccccc1)[C@@H](C)c1ccccc1 [compound 1, H-(NLys-Nspe-Nspe)4-NH2] (H-[Nlys][Nspe][Nspe][Nlys][Nspe][Nspe][Nlys][Nspe][Nspe][Nlys][Nspe][Nspe]-NH2)	0.88	1.6	6.3	4 to 8	no mice
10	C[C@@H](c1ccccc1)N(CC(N)=O)C(=O)CN(C(=O)CN(CCCCN)C(=O)CN(C(=O)CN(C(=O)CN(CCCCN)C(=O)[C@@H]1CCCN1C(=O)CN(C(=O)CN(CCCCN)C(=O)CN(C(=O)CN(C(=O)CNCCCCN)[C@@H](C)c1ccccc1)[C@@H](C)c1ccccc1)[C@@H](C)c1ccccc1)[C@@H](C)c1ccccc1)[C@@H](C)c1ccccc1)[C@@H](C)c1ccccc1 [1-Pro6, H-Nlys-Nspe-Nspe-Nlys-Nspe-L-Pro-(Nlys-Nspe-Nspe)2-NH2] (H-[Nlys][Nspe][Nspe][Nlys][Nspe]P[Nlys][Nspe][Nspe][Nlys][Nspe][Nspe]-NH2)	–	–	–	–	–
